Target: T1, hMAGL (Homo sapiens, UniProt Q99685)
T1 sequence (Q99685 1-303): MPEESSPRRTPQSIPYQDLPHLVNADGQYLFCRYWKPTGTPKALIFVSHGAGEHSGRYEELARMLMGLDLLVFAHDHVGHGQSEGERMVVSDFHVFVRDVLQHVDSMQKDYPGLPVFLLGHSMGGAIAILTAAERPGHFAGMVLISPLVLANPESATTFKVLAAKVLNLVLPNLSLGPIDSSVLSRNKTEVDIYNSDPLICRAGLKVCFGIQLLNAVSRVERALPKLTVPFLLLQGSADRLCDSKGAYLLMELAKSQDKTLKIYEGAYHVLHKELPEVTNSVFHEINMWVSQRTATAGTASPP
Experiment: 2-AG assay: MAGL inhibition, hydrolysis of 2-arachidonoylglycerol to arachidonic acid followed by mass spectrometry
Type: biochemical
Outline: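 MAGL preincubated with compound 15 min at RT in 50 mM Tris, 1 mM EDTA, 0.01% Tween-20, 2.5% DMSO; reaction started with 8 μM 2-AG (final), […], 30 min at RT. Quenched with acetonitrile containing d8-arachidonic acid; arachidonic acid quantified by RapidFire SPE-triple quad MS as arachidonic acid/d8 ratio.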

| IC50 [nM] | SMILES |
| --- | --- |
| 10.8 | O=C(N1CC2(CC(Cc3cnn(CC(F)(F)F)c3)C2)C1)N1CC2(CC(n3cnc(C4(O)CC4)n3)C2)C1 [Example 291, [6-[3-(1-hydroxycyclopropyl)-1,2,4-triazol-1-yl]-2-azaspiro[3.3]heptan-2-yl]-[6-[[1-(2,2,2-trifluoroethyl)pyrazol-4-yl]methyl]-2-azaspiro[3.3]heptan-2-yl]methanone] |
| 1.2 | O=C(N1CC2(CC(n3cnc(C4CC4)n3)C2)C1)N1CC2(CN(Cc3nc(-c4ccccc4)no3)C2)C1 [Example 245, [6-(3-cyclopropyl-1,2,4-triazol-1-yl)-2-azaspiro[3.3]heptan-2-yl]-[6-[(3-phenyl-1,2,4-oxadiazol-5-yl)methyl]-2,6-diazaspiro[3.3]heptan-2-yl]methanone] |
| 0.09 | O=C(N1CC2(CC(Cc3cnn4ccc(C(F)(F)F)nc34)C2)C1)N1CC2(CC(n3cnc(C4CC4)n3)C2)C1 [Example 358, [6-(3-cyclopropyl-1,2,4-triazol-1-yl)-2-azaspiro[3.3]heptan-2-yl]-[6-[[5-(trifluoromethyl)pyrazolo[1,5-a]pyrimidin-3-yl]methyl]-2-azaspiro[3.3]heptan-2-yl]methanone] |
| 223 | O=C(N1CC2(CC(n3cnc(C4CC4)n3)C2)C1)N1CC2(CN(Cc3snnc3C3CC3)C2)C1 [Example 90, [6-[(4-cyclopropylthiadiazol-5-yl)methyl]-2,6-diazaspiro[3.3]heptan-2-yl]-[6-(3-cyclopropyl-1,2,4-triazol-1-yl)-2-azaspiro[3.3]heptan-2-yl]methanone] |
| 3.42 | Cn1nc(C(F)(F)F)cc1CN1CCC2(CC1)CN(C(=O)N1CC3(CC(n4cnc(C5CC5)n4)C3)C1)C2 [Example 26, [6-(3-cyclopropyl-1,2,4-triazol-1-yl)-2-azaspiro[3.3]heptan-2-yl]-[7-[[2-methyl-5-(trifluoromethyl)pyrazol-3-yl]methyl]-2,7-diazaspiro[3.5]nonan-2-yl]methanone] |
| 13.4 | O=C(N1CC2(CC(n3cnc(C4CC4)n3)C2)C1)N1CC2(CN(Cc3cnn4ccccc34)C2)C1 [Example 285, [6-(3-cyclopropyl-1,2,4-triazol-1-yl)-2-azaspiro[3.3]heptan-2-yl]-[6-(pyrazolo[1,5-a]pyridin-3-ylmethyl)-2,6-diazaspiro[3.3]heptan-2-yl]methanone] |
| 8.92 | CC(F)(F)c1noc(CN2CC3(C2)CN(C(=O)N2CC4(CC(n5cnc(C6CC6)n5)C4)C2)C3)n1 [Example 259, [6-(3-cyclopropyl-1,2,4-triazol-1-yl)-2-azaspiro[3.3]heptan-2-yl]-[6-[[3-(1,1-difluoroethyl)-1,2,4-oxadiazol-5-yl]methyl]-2,6-diazaspiro[3.3]heptan-2-yl]methanone] |
| 79 | O=C(N1CC2(CC(n3cnc(C4CC4)n3)C2)C1)N1CC2(CN(Cc3cnn(CC(F)(F)F)n3)C2)C1 [Example 196, [6-(3-cyclopropyl-1,2,4-triazol-1-yl)-2-azaspiro[3.3]heptan-2-yl]-[6-[[2-(2,2,2-trifluoroethyl)triazol-4-yl]methyl]-2,6-diazaspiro[3.3]heptan-2-yl]methanone] |
| 2.23 | CCn1nc(C(F)(F)F)cc1CN1CC2(C1)CN(C(=O)N1CC3(CC(n4cnc(C5CC5)n4)C3)C1)C2 [Example 170, [6-(3-cyclopropyl-1,2,4-triazol-1-yl)-2-azaspiro[3.3]heptan-2-yl]-[6-[[2-ethyl-5-(trifluoromethyl)pyrazol-3-yl]methyl]-2,6-diazaspiro[3.3]heptan-2-yl]methanone] |
| 1.74 | O=C(N1CC2(CC(Cn3nccc3C(F)(F)F)C2)C1)N1CC2(CC(n3cnc(C4(O)CC4)n3)C2)C1 [Example 4] |
| 8 | O=C(N1CC2(CC(n3cnc(C4CC4)n3)C2)C1)N1CC2(CN(Cc3cc(C4CC4)n[nH]3)C2)C1 [Example 283, [6-[(3-cyclopropyl-1H-pyrazol-5-yl)methyl]-2,6-diazaspiro[3.3]heptan-2-yl]-[6-(3-cyclopropyl-1,2,4-triazol-1-yl)-2-azaspiro[3.3]heptan-2-yl]methanone] |
| 8.8 | Cc1onc(C2CC2)c1CN1CC2(C1)CN(C(=O)N1CC3(CC(n4cnc(C5CC5)n4)C3)C1)C2 [Example 268, [6-[(3-cyclopropyl-5-methyl-isoxazol-4-yl)methyl]-2,6-diazaspiro[3.3]heptan-2-yl]-[6-(3-cyclopropyl-1,2,4-triazol-1-yl)-2-azaspiro[3.3]heptan-2-yl]methanone] |
| 11.5 | CS(=O)(=O)c1cnn(CC2CC3(C2)CN(C(=O)N2CC4(CC(n5cnc(C6CC6)n5)C4)C2)C3)c1 [Example 332, [6-(3-cyclopropyl-1,2,4-triazol-1-yl)-2-azaspiro[3.3]heptan-2-yl]-[6-[(4-mesylpyrazol-1-yl)methyl]-2-azaspiro[3.3]heptan-2-yl]methanone] |
| 0.1 | O=C(N1CC2(CC(Cc3nsc(C(F)(F)F)n3)C2)C1)N1CC2(CC(n3cnc(C4CC4)n3)C2)C1 [Example 21, [6-(3-cyclopropyl-1,2,4-triazol-1-yl)-2-azaspiro[3.3]heptan-2-yl]-[6-[[5-(trifluoromethyl)-1,2,4-thiadiazol-3-yl]methyl]-2-azaspiro[3.3]heptan-2-yl]methanone] |

The next lines start with the compound.

| SMILES | IC50 [nM] |
| --- | --- |
| O=C(N1CC2(CC(Cn3cc(C(F)(F)F)nn3)C2)C1)N1CC2(CC(c3cc(C4CC4)n[nH]3)C2)C1 [Example 103, [6-(3-cyclopropyl-1H-pyrazol-5-yl)-2-azaspiro[3.3]heptan-2-yl]-[6-[[4-(trifluoromethyl)triazol-1-yl]methyl]-2-azaspiro[3.3]heptan-2-yl]methanone] | 1.63 |
| O=C(N1CC2(CC(c3cc(C4CC4)n[nH]3)C2)C1)N1CC2(CN(Cc3ncc(C(F)(F)F)s3)C2)C1 [Example 147, [6-(3-cyclopropyl-1H-pyrazol-5-yl)-2-azaspiro[3.3]heptan-2-yl]-[6-[[5-(trifluoromethyl)thiazol-2-yl]methyl]-2,6-diazaspiro[3.3]heptan-2-yl]methanone] | 1.04 |
| Cn1ncc(C(F)(F)F)c1CN1CC2(C1)CN(C(=O)N1CC3(CC(c4cc(C5CC5)n[nH]4)C3)C1)C2 [Example 157, [6-(3-cyclopropyl-1H-pyrazol-5-yl)-2-azaspiro[3.3]heptan-2-yl]-[6-[[2-methyl-4-(trifluoromethyl)pyrazol-3-yl]methyl]-2,6-diazaspiro[3.3]heptan-2-yl]methanone] | 0.63 |
| O=C(N1CC2(CC(Cc3cn(CC(F)(F)F)nc3C(F)(F)F)C2)C1)N1CC2(CC(n3cnc(C(F)(F)F)n3)C2)C1 [Example 121, [6-[[1-(2,2,2-trifluoroethyl)-3-(trifluoromethyl)pyrazol-4-yl]methyl]-2-azaspiro[3.3]heptan-2-yl]-[6-[3-(trifluoromethyl)-1,2,4-triazol-1-yl]-2-azaspiro[3.3]heptan-2-yl]methanone] | 0.35 |
| O=C(N1CC2(CC(Cc3cn(C4CC4)nc3C(F)(F)F)C2)C1)N1CC2(CC(n3cnc(C(F)(F)F)n3)C2)C1 [Example 61, [6-[[1-cyclopropyl-3-(trifluoromethyl)pyrazol-4-yl]methyl]-2-azaspiro[3.3]heptan-2-yl]-[6-[3-(trifluoromethyl)-1,2,4-triazol-1-yl]-2-azaspiro[3.3]heptan-2-yl]methanone] | 0.26 |
| CC(C)(C)n1nccc1CN1CC2(C1)CN(C(=O)N1CC3(CC(n4cnc(C(F)(F)F)n4)C3)C1)C2 [Example 275, [6-[(2-tert-butylpyrazol-3-yl)methyl]-2,6-diazaspiro[3.3]heptan-2-yl]-[6-[3-(trifluoromethyl)-1,2,4-triazol-1-yl]-2-azaspiro[3.3]heptan-2-yl]methanone] | 132 |
| O=C(N1CC2(CC(Cc3nnc(C4(C(F)(F)F)CC4)o3)C2)C1)N1CC2(CC(n3cnc(C(F)(F)F)n3)C2)C1 [Example 7] | 2.51 |
| O=C(N1CC2(CC(Cc3n[nH]cc3C(F)(F)F)C2)C1)N1CC2(CC(n3cnc(C(F)(F)F)n3)C2)C1 [Example 129, [6-[[4-(trifluoromethyl)-1H-pyrazol-3-yl]methyl]-2-azaspiro[3.3]heptan-2-yl]-[6-[3-(trifluoromethyl)-1,2,4-triazol-1-yl]-2-azaspiro[3.3]heptan-2-yl]methanone] | 0.31 |
| Cn1cc(CC2CC3(C2)CN(C(=O)N2CC4(CC(n5cnc(C6(O)CC6)n5)C4)C2)C3)c(C(F)(F)F)n1 [Example 6, [6-[3-(1-hydroxycyclopropyl)-1,2,4-triazol-1-yl]-2-azaspiro[3.3]heptan-2-yl]-[6-[[1-methyl-3-(trifluoromethyl)pyrazol-4-yl]methyl]-2-azaspiro[3.3]heptan-2-yl]methanone] | 4.93 |
| CC(C)(C)c1csc(CN2CC3(C2)CN(C(=O)N2CC4(CC(n5cnc(C(F)(F)F)n5)C4)C2)C3)n1 [Example 200, [6-[(4-tert-butylthiazol-2-yl)methyl]-2,6-diazaspiro[3.3]heptan-2-yl]-[6-[3-(trifluoromethyl)-1,2,4-triazol-1-yl]-2-azaspiro[3.3]heptan-2-yl]methanone] | 1.16 |
| O=C(N1CC2(CC(n3cnc(C(F)F)n3)C2)C1)N1CC2(CN(Cc3cn[nH]c3C(F)(F)F)C2)C1 [Example 310, [6-[3-(difluoromethyl)-1,2,4-triazol-1-yl]-2-azaspiro[3.3]heptan-2-yl]-[6-[[5-(trifluoromethyl)-1H-pyrazol-4-yl]methyl]-2,6-diazaspiro[3.3]heptan-2-yl]methanone] | 344 |

Reference: patent publication US20260374756A1, “HETEROCYCLIC COMPOUNDS AS INHIBITORS OF MONOACYLGLYCEROL LIPASE (MAGL)” (Hoffmann-La Roche Inc., priority 2022, published 2026)
